Experimental data published in US5539123A, “Low molecular weight thiocarbamates as inhibitors of elastase, uses and method of synthesis” (University of Kentucky Research Foundation, priority 1994, dated 1996).

Columns and labels:
Human Leucocyte Elastase = biological target: T1, Human Leucocyte Elastase (Homo sapiens, UniProt P08246); assay: Inactivation of Human Leucocyte Elastase (HLE-catalyzed hydrolysis of N-Methoxysuccinyl-L-Ala-L-Ala-L-Pro-L-Val-p-nitroanilide); type: biochemical; conditions: for times more potent than PC1: compared with PC1, kobs/I=3.3×10^4 M^-1 s^-1; for kinact/KI: second order rate constant, pH 7.5, 25° C., read-out: kobs/I
T1 construct: Human leucocyte elastase from human sputum was purchased from elastin corporation; purchased elastin corporation; host or cells: human sputum
T1 sequence (P08246 30-247 limits assumed): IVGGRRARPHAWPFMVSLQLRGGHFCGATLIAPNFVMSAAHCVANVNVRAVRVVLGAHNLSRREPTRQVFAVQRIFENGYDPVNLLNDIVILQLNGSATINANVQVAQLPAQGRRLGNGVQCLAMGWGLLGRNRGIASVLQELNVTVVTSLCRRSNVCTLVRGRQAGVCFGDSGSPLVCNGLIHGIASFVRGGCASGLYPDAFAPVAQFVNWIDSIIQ
Procedure: Therefore, second order rate constants (kobs /I, M^-1 s^-1), (I=concentration inhibitor molar) shown in Formula 1, were determined by following the inactivation of the enzyme for 2 hours as described in the experimental section. […] The results are plotted as % of relative remaining activity vs time which is the absolute remaining activity in the presence of inhibitor divided by the absolute remaining activity of the free enzyme in absence of inhibitor for the same time interval.
In such a case a semilog plot of the relative remaining activity (A/Ao) vs time would describe a curve approaching the fractional activity (F) at longer times whereas a semilog plot of (A/Ao-F)/(1-F) vs time will be linear with a slope equal to the kobs, the pseudofirst order rate constant (equation 2).
The inactivation of HLE enzyme appears to involve the chemical modification of one residue on the enzyme and the pseudofirst order rate constant kobs divided by the concentration of the inhibitor (I) can be used as a measure of the inhibitory activity of the compounds (equation 3).
Human leucocyte elastase from human sputum was purchased from elastin corporation. Hepes, 4-(2-hydroxyethyl)-1-piperazineethanesulfonic acid, was purchased from Aldrich Chemical Co. (Milwaukee, Wis.). Substrate N-Methoxysuccinyl-L-Ala-L-Ala-L-Pro-L-Val-p-nitroanilide was purchased from Sigma Chemicals. Absorbance was measured with a VARIAN CARY-2200 spectrophotometer at 410 nm.
5 μl of acetate buffer (0.05M Sodium Acetate adjusted with 6N HCl to ph=5.5) is added to the reference cuvette, and the cuvette is shaken for 15 seconds to mix the solution. 5 μl of HLE 3.7×10^-5 M in acetate buffer is added to the sample cuvette and the cuvette is shaken for 15 seconds. Both cuvettes were placed in the jacketed cuvette holders of the spectrophotometer and incubated at 25° C. for a fixed time interval up to 2 hours (Incubation periods of 3, 4, 5, 7, 10, 15, 20, 30, 45, 60, 90 and 120 minutes were used).
Shortly before the incubation period ends, the cuvettes are balanced at 410 nm. […] The cuvettes are shaken for 15 seconds and the absorbance is recorded at 410 nm at 1 min, 2 min and 3 min after addition of substrate. A control in which 50 μl of dimethyl sulfoxide used to dissolve the inhibitor is added in its place, is done in the same manner as above for each incubation period.
Absorbance of sample is the absolute remaining activity of HLE (A), and absorbance of control is the total activity of HLE (Ao).
% Relative Remaining Activity=(A/Ao)×100
The % relative remaining activity of the HLE for each inhibitor is plotted against the time of incubation and from the slope of the semilog plot the kobs is determined.
The equation that describes this model is:
A/Ao=(1-F)e^-Kobst +F (equation 1)
Rearranging results in a linear relationship
Ln ((A/Ao)-F/1-F)=-kobs t (equation 2)
A semilog plot results in a straight line with slope=kobs, the pseudofirst order rate constant ksec =kobs /I (equation 3)
The ksec is the second order independent rate constant that is used to compare the inhibitory activity of the compounds against HLE.

[1] = Stability in excess of methanol with normal phase HLPC/HPLC; type: physicochemical
Procedure: The flow was maintained at 1 ml/min, and a KRATOS variable UVdetector at 265 nm was used. Two separate experiments were conducted under the above conditions in which the stability of (1E) was [drawing 16] monitored in excess of methanol.
The above two experiments indicate that (1E) is consumed at the same rate as the thiol tetrazole (D) is produced. The thiol tetrazole (D) is exclusively produced from the degradation of the thiocarbamate with methanol. In other words (1E) reacts with methanol to give thiol tetrazole (D) and most probably N-n-butyl, methylcarbamate which cannot be detected under the above conditions.

[2] = inactivation followed for 2 hours

Row | Compound | inhibition of HLE (Human Leucocyte Elastase) | kinact/KI (Human Leucocyte Elastase; [2]) | also measured
1 | CCCCN [Compound 1A, n-butylamine] | None of the corresponding amines (1A, 2A, 3A, 4A, 5A and 6A) nor 1-phenyl-1H-tetrazole-5-thiol (D) inhibited HLE |  | 
2 | CCCCNC(=O)Sc1nnnn1-c1ccccc1 [Compound 1E, N-butyl, 1-phenyl-1H-tetrazole-5-thiocarbamate] |  | 210000 M⁻¹ s⁻¹ | times more potent than PC1 (Human Leucocyte Elastase): 10 times; stability [1]: fairly stable; half-life ([1]; calculated from the pseudofirst order rate constants): 17 days
3 | C=CCN [Compound 2A] | None of the corresponding amines (1A, 2A, 3A, 4A, 5A and 6A) nor 1-phenyl-1H-tetrazole-5-thiol (D) inhibited HLE |  | 
4 | C=CCNC(=O)Sc1nnnn1-c1ccccc1 [Compound 2E, N-allyl, 1-phenyl-1H-tetrazole-5-thiocarbamate] |  | 61000 M⁻¹ s⁻¹ | times more potent than PC1 (Human Leucocyte Elastase): 2 times
5 | CC(C)N [Compound 3A, isopropyl amine] | None of the corresponding amines (1A, 2A, 3A, 4A, 5A and 6A) nor 1-phenyl-1H-tetrazole-5-thiol (D) inhibited HLE |  | 
6 | CC(C)NC(=O)Sc1nnnn1-c1ccccc1 [Compound 3E, N-isopropyl, 1-phenyl-1H-tetrazole-5-thiocarbamate] |  | 3300 M⁻¹ s⁻¹ | times more active than 4E (Human Leucocyte Elastase; compared with (4E), kobs/I): 10 times
7 | Nc1ccccc1 [Compound 4A] | None of the corresponding amines (1A, 2A, 3A, 4A, 5A and 6A) nor 1-phenyl-1H-tetrazole-5-thiol (D) inhibited HLE |  | 
8 | O=C(Nc1ccccc1)Sc1nnnn1-c1ccccc1 [Compound 4E, N-phenyl, 1-phenyl-1H-tetrazole-5-thiocarbamate] |  | 190 M⁻¹ s⁻¹ | 
9 | CCCCNCC [Compound 5A, ethyl, butylamine] | None of the corresponding amines (1A, 2A, 3A, 4A, 5A and 6A) nor 1-phenyl-1H-tetrazole-5-thiol (D) inhibited HLE |  | 
10 | CCCCN(CC)C(=O)Sc1nnnn1-c1ccccc1 [Compound 5E, N-ethyl-N-butyl, 1-phenyl-1H-tetrazole-5-thiocarbamate] |  | 180 M⁻¹ s⁻¹ | 
11 | CC(C)NC(C)C [Compound 6A] | None of the corresponding amines (1A, 2A, 3A, 4A, 5A and 6A) nor 1-phenyl-1H-tetrazole-5-thiol (D) inhibited HLE |  | 
12 | CC(C)N(C(=O)Sc1nnnn1-c1ccccc1)C(C)C [Compound 6E, N, N-diisopropyl, 1-phenyl-1H-tetrazole-5-thiocarbamate] | no inhibitory activity |  | kobs/I (class symbol) (Human Leucocyte Elastase; [2]): N.I.
13 | Sc1nnnn1-c1ccccc1 [D, 1-phenyl-1H-tetrazole-5-thiol] | None of the corresponding amines (1A, 2A, 3A, 4A, 5A and 6A) nor 1-phenyl-1H-tetrazole-5-thiol (D) inhibited HLE |  | 
